Reference: patent publication US5439922A, “Piperidyl-substituted indoles for treating anxiety” (H. Lundbeck A/S, priority 1990, dated 1995)
“Also recorded” adds a separate entry of the source. Read-outs that look alike come from different tables or passages of the source.

Columns and labels:
[1] = Catalepsy test (rat, vertical wire mesh, s.c.); conditions: sc
Description: Evaluation of catalepsy was made according to Arnt (Eur. J. Pharmacol. 90, 47-55 (1983)). Catalepsy is an indicator of dopamine receptor blockade in vivo which corrolates to the clinical potency of the classical neuroleptics. However, catalepsy is also considered to indicate extrapyramidal side effects (Arnt, J. et al.; Neuropharrnacology 1981, 20, 1331-1334.
In this test test compound is given s.c. in different doses. The rat (170-240 g )is placed on a vertical wire mesh (mesh diameter 12 mm ). The rat is considered cataleptogenic if it remains immobile for more than 15 sec. The maximum number of rats showing catalepsy within the first 6 hours is recorded for each dose group. The results are recorded in fractions and an ED50 value is calculated by means of log-probit analysis.
The following corresponding 1-aryl-3-(1,2,3,6-tetrahydropyridyl)- or 1-aryl-3-(piperazinyl)indole derivatives which are analogues of Lu 23-174 and Compound No 12, respectively, were included in the test as comparing compounds:
A) 1-(4-Fluorophenyl)-3-[1-[2-(2-imidazolidinon-1-yl)ethyl]-1,2,3,6-tetrahydropyridin-4-yl]-5-trifluoromethyl-1H-indole
B) 5-Chloro-1-(4-fluorophenyl)-3-[1-[2-(2-imidazolidinon-1-yl)ethyl]-1,2,3,6- tetrahydro-4-pyridyl]-1H-indole
C) 5-Chloro-1-(4-fluorophenyl)-3-[4-[2-(2-imidazolidinon-1-yl)ethyl]-1-piperazinyl]-1H-indole

[2] = Inhibition of isolation induced aggression in mice; type: in vivo, mouse (male NMRI/BOM, SPF); conditions: for ED50: Mus musculus
Description: This test is used to evaluate the ability of a test substance to inhibit isolation induced aggressive behaviour in mice and is considered to be a test model for anxiolytic effect. The method is a modified version of the method described by McMillen et al. in Drug Develop. Research 12, 53-62, 1988.
Male mice (NMRI/BOM,SPF) weighing 16-18 g were used. The mice were housed individually in macrolon cages for 3 weeks before training to attack an intruder mouse. The mice were trained daily for a period of 1-2 weeks until a satisfactory respons was obtained. During the first days the mice were trained against each other. When a satisfactory respons was obtained group-housed mice were used as intruders. The time elapsed until attack was recorded. The intruder mouse was removed as soon as an attack had occured or after 180 sec. After the training period 60-70 percent of the mice had latencies of less than 10 sec.
The mice were pretested before drug treatment. Only mice attacking within 25 sec. were used. The animals were treated with test substance or saline. The mice were tested 30 or 120 minutes later, respectively. Nonspecific motoric effects were also recorded. 8 mice were used per group.
The results were stated as fractions of mice with attack latencies greater than or equal to a threshold value. As threshold values were used 180 and 90 sec. ED50 values were calculated by log-probit analysis.
The results are given in the following table as ED50 values in μmol/kg. The known compounds diazepam, buspirone and ritanserin were included in the test for the purpose of comparison.

[3] = Light/dark discrimination test in rats; type: in vivo, rat (Wistar WU); conditions: rat, s.c.; observation 2h
Protocol: The test was carried out similarly to the test in mice described above, however modified in accodance with F. C. Colpaert et al., Psychopharmacology (1985) 86: 45-54. The test used Wistar WU rats.

[4] = Light/dark discrimination test in mice (two compartment activity box); type: in vivo, mouse (male albino BKW); conditions: mouse, i.p.
Protocol: This test was carried out in accordance with the method described in Costall et al. Br. J. Pharmacol. 90 275P (1987).
The test was conducted using a two compartment activity box in which the actions of anxiolytic compounds to reduce aversion against a brightly-lit environment may be readily detected. The box is designed as an open-top experimental box (45*27*27 cm) one third of which was partitioned from the rest, painted black and illuminated with red light. The remainder of the box was painted white and brightly illuminated (1000 W). The floor of each area was lined into squares. Behavioural changes were determined for each area from video recordings for periods of 40 min. Data obtained from dose groups of 5 animals (male albino BKW mice, 25-30 g ) were analysed using single factor analysis of variance, and Dunnett's t-test. Test compounds were given intrapentoneally 45 min before testing.
The results are given in the following Table 2 as minimum doses (mg/kg i.p.) tested showing effect (p<0.001). The behavioural change used were exploratory rearings and line crossings.
The known substances diazepam, and ondansetron were included in the test for comparison purposes.

[5] = 0.5 h, attack latency threshold 90 sec., 30 min pretreatment, read-out: ED50, threshold 90 sec., 30 min pretreatment
[6] = 0.5 h, attack latency threshold 180 sec., 30 min pretreatment, read-out: ED50, threshold 180 sec., 30 min pretreatment
[7] = 2 h, attack latency threshold 90 sec., 120 min pretreatment, read-out: ED50, threshold 90 sec., 120 min pretreatment
[8] = 2 h, attack latency threshold 180 sec., 120 min pretreatment, read-out: ED50, threshold 180 sec., 120 min pretreatment

`O=C1NCCN1CCN1CC=C(c2cn(-c3ccc(F)cc3)c3ccc(C(F)(F)F)cc23)CC1` [A, 1-(4-Fluorophenyl)-3-[1-[2-(2-imidazolidinon-1-yl)ethyl]-1,2,3,6-tetrahydropyridin-4-yl]-5-trifluoromethyl-1H-indole, reference compound] showed an ED50 at 6 h ([1]; in vivo) of 0.49 µmol/kg.

`O=C1NCCN1CCN1CC=C(c2cn(-c3ccc(F)cc3)c3ccc(Cl)cc23)CC1` [B, 5-Chloro-1-(4-fluorophenyl)-3-[1-[2-(2-imidazolidinon-1-yl)ethyl]-1,2,3,6-tetrahydro-4-pyridyl]-1H-indole, reference compound] gave an ED50 at 6 h ([1]; in vivo) of 2.2 µmol/kg.

`O=C1CC2(CCCC2)CC(=O)N1CCCCN1CCN(c2ncccn2)CC1` [Buspirone] gave an ED50 [2, 5] of 9.6 µmol/kg and an ED50 [2, 6] of 5.4 µmol/kg.

Work on `O=C1NCCN1CCN1CCN(c2cn(-c3ccc(F)cc3)c3ccc(Cl)cc23)CC1` [C, 5-Chloro-1-(4-fluorophenyl)-3-[4-[2-(2-imidazolidinon-1-yl)ethyl]-1-piperazinyl]-1H-indole, reference compound] yielded an ED50 at 6 h ([1]; rat) of 4.5 µmol/kg.

For `O=C1OCCN1CCN1CCC(c2cn(-c3ccc(F)cc3)c3ccc(Cl)cc23)CC1` [Compound 2, 5-chloro-1-(4-fluorophenyl)-3-[1-[2-(2-oxazolidinon-1-yl)ethyl]-4-piperidyl]-1H-indole], the ED50 at 6 h ([1]; rat) was > 18 µmol/kg.

`CN1CCN(CCN2CCC(c3cn(-c4ccc(F)cc4)c4ccc(Cl)cc34)CC2)C1=O` [Compound 3, 5-chloro-1-(4-fluorophenyl)-3-[1-[2-(3-methyl-2-imidazolidinon-1-yl)ethyl]-4-piperidyl]1H-indole] showed an ED50 at 6 h ([1]; in vivo) of 31 µmol/kg.

With `O=C1CCCN1CCN1CCC(c2cn(-c3ccc(F)cc3)c3ccc(Cl)cc23)CC1` [Compound 4, 5-chloro-1-(4-fluorophenyl)-3-[1-[2-(2-pyrrolidinon-1-yl)ethyl]-4-piperidyl]-1H-indole] the ED50 at 6 h ([1]; in vivo) was 23 µmol/kg.

In the case of `O=C1NCCN1CCN1CCC(c2cn(-c3ccc(F)cc3)c3ccc(C(F)(F)F)cc23)CC1` [Compound 12, 1-(4-fluorophenyl)-3-[1-[2-(2-imidazolidinon-1-yl)ethyl]-4-piperidyl]-5-trifluomethyl-1H-indole], the ED50 at 6 h ([1]; rat) is reported as 38 µmol/kg.

In the case of `CC(C)N1CCN(CCN2CCC(c3cn(-c4ccc(F)cc4)c4ccc(Cl)cc34)CC2)C1=O` [Compound 14, 5-chloro-1-(4-fluorophenyl)-3-[1-[2-[3-(2-propyl)-2-imidazolidinon-1-yl]ethyl]-4-piperidyl]-1H-indole], the ED50 at 6 h ([1]; rat) is reported as > 69 µmol/kg.

In the case of `O=C1NCCN1CCN1CCC(c2cn(-c3ccc(F)cc3)c3ccc(F)cc23)CC1` [Compound 16, 5-fluoro-1-(4-fluorophenyl)-3-[1-[2-(2-imidazolidinon-1-yl)ethyl]-4-piperidyl]-1H-indole], the ED50 [2, 7] is reported as 2.1 µmol/kg, the ED50 [2, 8] is reported as 1.6 µmol/kg and the ED50 at 6 h ([1]; rat) is reported as > 78 µmol/kg.

With `Cc1ccc2c(c1)c(C1CCN(CCN3CCNC3=O)CC1)cn2-c1ccc(F)cc1` [Compound 24, 1-(4-fluorophenyl)-3-[1-[2-(2-imidazolidinon-1-yl)ethyl]-4-piperidyl]-5-methyl-1H-indole] the ED50 [2, 7] was 3.2 µmol/kg, the ED50 [2, 8] was 2.5 µmol/kg and the ED50 at 6 h ([1]; rat) was > 95 µmol/kg.

Molecule `CN1C(=O)CN=C(c2ccccc2)c2cc(Cl)ccc21` [Diazepam] has an ED50 ([2]; 0.5 h, read-out: ED50, threshold 90 sec., 30 min pretreatment) of 26 µmol/kg and an ED50 ([2]; 0.5 h, read-out: ED50, threshold 180 sec., 30 min pretreatment) of 15 µmol/kg.

`O=C1NCCN1CCN1CCC(c2cn(-c3ccc(F)cc3)c3ccccc23)CC1` [Lu 23-086, 1-(4-fluorophenyl)-3-[1-[2-(2-imidazolidinon-1-yl)ethyl]-4-piperidyl]-1H-indole] showed an ED50 [2, 7] of 1.9 µmol/kg and an ED50 [2, 8] of 1.7 µmol/kg.

In the case of `O=C1NCCN1CCN1CCC(c2cn(-c3ccc(F)cc3)c3ccc(Cl)cc23)CC1` [Lu 23-174, 5-chloro-1-(4-fluorophenyl)-3-[1-[2-(2-imidazolidinon-1-yl)ethyl]-4-piperidyl]-1H-indole], the “Effect in light/dark discrimination test in rats (active dose in words)” value [3] is reported as “showed effect in nano molar doses/kg”, the ED50 [2, 5] is reported as 4.4 µmol/kg and the ED50 [2, 6] is reported as 3.2 µmol/kg. The ED50 at 6 h ([1]; rat) was > 98 µmol/kg.

In the case of `Cc1nc2sccn2c(=O)c1CCN1CCC(=C(c2ccc(F)cc2)c2ccc(F)cc2)CC1` [Ritanserin], the “Effect in light/dark discrimination test in rats (active dose in words)” value [3] is reported as “only active in μmolar doses/kg”, the ED50 [2, 5] is reported as > 21 µmol/kg and the ED50 [2, 6] is reported as > 21 µmol/kg. For the same molecule, the ED50 [2, 7] was > 10 µmol/kg, the ED50 [2, 8] was > 10 µmol/kg and the “Effect in the aggression test” value ([2]; mouse, in vivo) was “showed no effect”. The “Effect in light/dark discrimination test in mice” value [4] was “did not show effect; also recorded: inactive”.
